According to PMC12254266, “Multicolored sequential resonance energy transfer for detection of simultaneous ligand binding at G protein-coupled receptors” (Nature Communications, 2025):
“And” between values parts separate entries of the source, which are not always exact repeats. Equal entries are not always repeated.

What was measured:
[1] = molecular target: T1, Nluc-FFA1 (Homo sapiens, UniProt O14842); assay: NanoBRET binding (saturation, competition, kinetics) at N terminal Nluc tagged FFA1; conditions: for Specific BRET (690/450)%: Figure 4Ci; for Specific BRET (690/450)% / Specific BRET (540/450)%: technical duplicates; for Specific BRET (540/450)%: Figure 4Cii
T1 construct: expressed in transfected cells

[2] = molecular target: FFA1-Nluc (Homo sapiens, UniProt O14842); assay: DISCo-BRET (endpoint, spectra scan, kinetics) with TUG-2591 and TUG-2597 at C terminal Nluc tagged FFA1; type: binding; set-up: expressed in transfected cells; conditions: for Specific BRET (540/450), % of control: Figure 4Bii, single replicate values (technical duplicate)
Method in brief: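 After Nano-Glo substrate (1:800 final), ligand-treated FFA1-Nluc or Nluc-FFA1 cells, doxycycline-induced (100 ng/mL), were read. Kinetic association/dissociation runs were at 25 °C; endpoint and 440–740 nm spectra came after 5 min at 37 °C. Non-specific signal came from competing ligands at high concentration.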

T1 sequence (O14842 whole entry): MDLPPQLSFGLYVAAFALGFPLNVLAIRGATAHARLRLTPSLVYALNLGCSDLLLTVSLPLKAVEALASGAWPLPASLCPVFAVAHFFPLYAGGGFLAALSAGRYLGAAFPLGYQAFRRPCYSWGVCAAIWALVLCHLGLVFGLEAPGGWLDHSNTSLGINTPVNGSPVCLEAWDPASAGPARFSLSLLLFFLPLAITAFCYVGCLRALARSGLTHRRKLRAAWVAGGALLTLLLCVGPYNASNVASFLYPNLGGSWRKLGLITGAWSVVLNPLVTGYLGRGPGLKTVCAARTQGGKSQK
Chain of FFA1-Nluc (O14842 whole entry): as above

'bottom' of the IC50 curve fit, Nano-BRET TUG-2591 ([1]; percentage of binding in the absence of competing ligand, tracer TUG-2591 100 nM): 160%
'bottom' of the IC50 curve fit, Nano-BRET TUG-2597 ([1]; percentage of binding in the absence of competing ligand, tracer TUG-2597 […]): -16%
pIC50 Nano-BRET TUG-2597 ([1]; tracer TUG-2597 […], NBD/Nluc): 7.2±0.03
pKi Nano-BRET TUG-2597 ([1]; using Kd TUG-2597 380 nM): 7.5±0.03
pIC50 DISCo-BRET NBD/Nluc ([2]; 100 nM TUG-2591 and […] TUG-2597, NC = No competition): 7.3±0.1
pIC50 DISCo-BRET SulfoCy5/NBD ([2]; 100 nM TUG-2591 and […] TUG-2597, one site model, NC = No competition): 7.4±0.1
'bottom' of the IC50 curve, DISCo-BRET NBD/Nluc ([2]; percentage of binding obtained in the absence of competing ligand): 9.3%
'bottom' of the IC50 curve, DISCo-BRET SulfoCy5/NBD ([2]; percentage of binding obtained in the absence of competing ligand, 100 nM TUG-2591 and […] TUG-2597): 16%
pKi DISCo-BRET NBD/Nluc ([2]; using Kd TUG-2597 380 nM): 7.5±0.1
Compound: COc1ccc(C(=O)N(CC(C)(C)C)c2cccc(C)n2)c(N2CCC(COc3cccc(C(CC(=O)O)C4CC4)c3)CC2)c1.O=C(O)C(F)(F)F (stereo not shown) [Cpd 6h, reference compound]
Specific BRET (690/450)% ([1]; log[Ligand] -5): 154.01% and 159.82% and 184.44% and 164.18% and 149.89% and 140.91%
Specific BRET (690/450)% ([1]; log[Ligand] -5.5): 149.18% and 149.96% and 186.01% and 169.50% and 140.81% and 140.26%
Specific BRET (690/450)% ([1]; log[Ligand] -6): 148.97% and 147.78% and 172.23% and 173.39% and 141.21% and 145.62%
Specific BRET (690/450)% ([1]; log[Ligand] -6.5): 146.95% and 143.16% and 174.27% and 175.78% and 147.71% and 149.19%
Specific BRET (690/450)% ([1]; log[Ligand] -7): 142.54% and 138.75% and 174.07% and 180.89% and 144.33% and 137.24%
Specific BRET (690/450)% ([1]; log[Ligand] -8): 121.15% and 120.06% and 152.10% and 144.46% and 121.71% and 120.62%
Specific BRET (690/450)% ([1]; log[Ligand] -9): 105.22% and 101.22% and 121.39% and 115.73% and 104.79% and 106.52%
Specific BRET (690/450)% ([1]; log[Ligand] -10): 100.55% and 99.45% and 103.65% and 96.35% and 96.40% and 103.60%
Specific BRET (540/450)% ([1]; log[Ligand] -7): 19.25% and 26.02% and 25.79% and 30.80% and 33.39% and 36.04%
Specific BRET (540/450)% ([1]; log[Ligand] -8): 119.18% and 117.93% and 79.82% and 76.64% and 93.10% and 100.29%
Specific BRET (540/450)% ([1]; log[Ligand] -9): 109.78% and 127.71% and 86.42% and 90.20% and 105.18% and 118.46%
Specific BRET (540/450)% ([1]; log[Ligand] -10): 94.36% and 105.64% and 98.39% and 101.61% and 82.28% and 117.72%
Specific BRET (540/450), % of control ([2]; log[Ligand] -5): 29.23 % of control and -1.54 % of control and -0.53 % of control and 0.53 % of control and 0.62 % of control and 6.18 % of control and -2.77 % of control and 4.56 % of control and -7.63 % of control and 10.97 % of control
Specific BRET (540/450), % of control ([2]; log[Ligand] -5.5): 46.57 % of control and -7.13 % of control and 13.78 % of control and 13.63 % of control and 17.56 % of control and 19.08 % of control and -1.79 % of control and 0.81 % of control and 1.43 % of control and -21.22 % of control
Specific BRET (540/450), % of control ([2]; log[Ligand] -6): 59.72 % of control and 23.08 % of control and 13.18 % of control and 6.55 % of control and 14.37 % of control and 13.95 % of control and 102.77 % of control and 7.65 % of control and 12.16 % of control and 25.98 % of control
Specific BRET (540/450), % of control ([2]; log[Ligand] -6.5): 46.01 % of control and 12.17 % of control and 20.56 % of control and 31.70 % of control and 26.58 % of control and 36.43 % of control and 14.98 % of control and 12.87 % of control and 22.17 % of control and 15.73 % of control
Specific BRET (540/450), % of control ([2]; log[Ligand] -7): 46.01 % of control and 48.53 % of control and 38.93 % of control and 54.59 % of control and 43.79 % of control and 54.75 % of control and 36.48 % of control and 23.45 % of control and 26.46 % of control and 27.41 % of control
Specific BRET (540/450), % of control ([2]; log[Ligand] -8): 134.69 % of control and 121.26 % of control and 83.36 % of control and 78.84 % of control and 78.63 % of control and 91.67 % of control and 70.36 % of control and 75.90 % of control and 108.22 % of control and 143.98 % of control
Specific BRET (540/450), % of control ([2]; log[Ligand] -9): 144.76 % of control and 148.39 % of control and 88.63 % of control and 100.08 % of control and 88.76 % of control and 93.89 % of control and 95.60 % of control and 108.79 % of control and 114.18 % of control and 110.13 % of control
